Measurements as given in ChEMBL document CHEMBL4627327, “Antibacterial activity of singly and doubly modified salinomycin derivatives” (Bioorg Med Chem Lett, 2020).
In brackets after ≈: the same amount, converted by molar mass. Activity calls are given as the source filed them. No cut-off for these calls is given here.

What was measured:
[1] = system: Staphylococcus epidermidis; assay: Antibacterial activity against Staphylococcus epidermidis ATCC 12228 assessed as bacterial growth inhibition measured after 18 hrs by CLSI protocol based two-fold serial microdilution method; format: functional; details: for MIC: ATCC 12228, 18 h
[2] = system: Staphylococcus epidermidis; assay: Antibacterial activity against methicillin-resistant Staphylococcus epidermidis isolate 609 assessed as bacterial growth inhibition measured after 18 hrs by CLSI protocol based two-fold serial microdilution method; format: functional; details: isolate 609, 18 h
[3] = Genotoxicity in rec-positive Bacillus subtilis H17 assessed as diameter of inhibition zone at 256 ug measured after 24 hrs by rec-assay; format: toxicity; details: in vivo
[4] = system: Staphylococcus aureus; assay: Antibacterial activity against methicillin-resistant Staphylococcus aureus isolate 612 assessed as bacterial growth inhibition measured after 18 hrs by CLSI protocol based two-fold serial microdilution method; format: functional; details: isolate 612, 18 h
[5] = system: Staphylococcus aureus; assay: Antibacterial activity against methicillin-resistant Staphylococcus aureus isolate 583 assessed as bacterial growth inhibition measured after 18 hrs by CLSI protocol based two-fold serial microdilution method; format: functional; details: isolate 583, 18 h
[6] = system: Staphylococcus epidermidis; assay: Antibacterial activity against methicillin-resistant Staphylococcus epidermidis isolate 660 assessed as bacterial growth inhibition measured after 18 hrs by CLSI protocol based two-fold serial microdilution method; format: functional; details: isolate 660, 18 h
[7] = system: Pseudomonas aeruginosa; assay: Antibacterial activity against Pseudomonas aeruginosa ATCC 15442 assessed as bacterial growth inhibition measured after 18 hrs by CLSI protocol based two-fold serial microdilution method; format: functional, organism-based
[8] = system: Staphylococcus aureus; assay: Antibacterial activity against Staphylococcus aureus ATCC 6358 assessed as bacterial growth inhibition measured after 18 hrs by CLSI protocol based two-fold serial microdilution method; format: functional; details: for MIC: ATCC 6358, 18 h
[9] = system: Staphylococcus epidermidis; assay: Antibacterial activity against methicillin-resistant Staphylococcus epidermidis isolate 654 assessed as bacterial growth inhibition measured after 18 hrs by CLSI protocol based two-fold serial microdilution method; format: functional; details: isolate 654, 18 h
[10] = system: Staphylococcus aureus; assay: Antibacterial activity against Staphylococcus aureus ATCC 29213 assessed as bacterial growth inhibition measured after 18 hrs by CLSI protocol based two-fold serial microdilution method; format: functional; details: for MIC: ATCC 29213, 18 h
[11] = system: Staphylococcus epidermidis; assay: Inhibition of biofilm formation in Staphylococcus epidermidis ATCC 35984 at 1 to 8 ug/ml measured after 24 hrs by crystal violet staining based assay; format: functional, organism-based
[12] = system: Staphylococcus aureus; assay: Antibacterial activity against Staphylococcus aureus NCTC 4163 assessed as bacterial growth inhibition measured after 18 hrs by CLSI protocol based two-fold serial microdilution method; format: functional; details: for MIC: NCTC 4163, 18 h
[13] = system: Pseudomonas aeruginosa; assay: Antibacterial activity against Pseudomonas aeruginosa ATCC 27853 assessed as bacterial growth inhibition measured after 18 hrs by CLSI protocol based two-fold serial microdilution method; format: functional, organism-based
[14] = system: Enterococcus hirae; assay: Antibacterial activity against Enterococcus hirae ATCC 10541 assessed as bacterial growth inhibition measured after 18 hrs by CLSI protocol based two-fold serial microdilution method; format: functional; details: for MIC: ATCC 10541, 18 h
[15] = system: Staphylococcus aureus; assay: Antibacterial activity against methicillin-resistant Staphylococcus aureus isolate 770 assessed as bacterial growth inhibition measured after 18 hrs by CLSI protocol based two-fold serial microdilution method; format: functional; details: isolate 770, 18 h
[16] = system: Escherichia coli; assay: Antibacterial activity against Escherichia coli ATCC 25922 assessed as bacterial growth inhibition measured after 18 hrs by CLSI protocol based two-fold serial microdilution method; format: functional, organism-based
[17] = system: Staphylococcus aureus; assay: Antibacterial activity against Staphylococcus aureus ATCC 25923 assessed as bacterial growth inhibition measured after 18 hrs by CLSI protocol based two-fold serial microdilution method; format: functional; details: for MIC: ATCC 25923, 18 h
[18] = system: Staphylococcus epidermidis; assay: Antibacterial activity against methicillin-resistant Staphylococcus epidermidis isolate 574 assessed as bacterial growth inhibition measured after 18 hrs by CLSI protocol based two-fold serial microdilution method; format: functional; details: isolate 574, 18 h
[19] = system: Staphylococcus epidermidis; assay: Antibacterial activity against methicillin-resistant Staphylococcus epidermidis isolate 602 assessed as bacterial growth inhibition measured after 18 hrs by CLSI protocol based two-fold serial microdilution method; format: functional; details: isolate 602, 18 h
[20] = system: Staphylococcus epidermidis; assay: Antibacterial activity against methicillin-resistant Staphylococcus epidermidis isolate 610 assessed as bacterial growth inhibition measured after 18 hrs by CLSI protocol based two-fold serial microdilution method; format: functional; details: isolate 610, 18 h
[21] = system: Staphylococcus epidermidis; assay: Inhibition of biofilm formation in Staphylococcus epidermidis ATCC 12228 at 1 to 8 ug/ml measured after 24 hrs by crystal violet staining based assay; format: functional, organism-based
[22] = system: Staphylococcus epidermidis; assay: Antibacterial activity against Staphylococcus epidermidis ATCC 35984 assessed as bacterial growth inhibition measured after 18 hrs by CLSI protocol based two-fold serial microdilution method; format: functional; details: for MIC: ATCC 35984, 18 h
[23] = system: Staphylococcus epidermidis; assay: Antibacterial activity against methicillin-resistant Staphylococcus epidermidis isolate 603 assessed as bacterial growth inhibition measured after 18 hrs by CLSI protocol based two-fold serial microdilution method; format: functional; details: isolate 603, 18 h
[24] = system: Staphylococcus aureus; assay: Antibacterial activity against methicillin-resistant Staphylococcus aureus isolate 620 assessed as bacterial growth inhibition measured after 18 hrs by CLSI protocol based two-fold serial microdilution method; format: functional; details: isolate 620, 18 h
[25] = system: Micrococcus luteus; assay: Antibacterial activity against Micrococcus luteus ATCC 9341 assessed as bacterial growth inhibition measured after 18 hrs by CLSI protocol based two-fold serial microdilution method; format: functional; details: for MIC: ATCC 9341, 18 h
[26] = Genotoxicity in rec negative Bacillus subtilis M45 assessed as diameter of inhibition zone at 256 ug measured after 24 hrs by rec-assay; format: toxicity; details: in vivo
[27] = system: Escherichia coli; assay: Antibacterial activity against Escherichia coli NCTC 8196 assessed as bacterial growth inhibition measured after 18 hrs by CLSI protocol based two-fold serial microdilution method; format: functional, organism-based
[28] = system: Staphylococcus aureus; assay: Antibacterial activity against methicillin-resistant Staphylococcus aureus isolate 584 assessed as bacterial growth inhibition measured after 18 hrs by CLSI protocol based two-fold serial microdilution method; format: functional; details: isolate 584, 18 h
[29] = system: Staphylococcus aureus; assay: Antibacterial activity against methicillin-resistant Staphylococcus aureus isolate 750 assessed as bacterial growth inhibition measured after 18 hrs by CLSI protocol based two-fold serial microdilution method; format: functional; details: isolate 750, 18 h
[30] = system: Staphylococcus aureus; assay: Antibacterial activity against methicillin-resistant Staphylococcus aureus isolate 621 assessed as bacterial growth inhibition measured after 18 hrs by CLSI protocol based two-fold serial microdilution method; format: functional; details: isolate 621, 18 h

Structure (SMILES) | MIC [2] | diameter of the inhibition zone (DIZ) [3] | MIC [4] | MIC [5] | MIC [6] | Activity [7] | MIC [9] | inhibition [11] | Activity [13] | MIC [15] | Activity [16] | MIC [18] | MIC [19] | MIC [20] | inhibition [21] | MIC [23] | MIC [24] | diameter of the inhibition zone (DIZ) [26] | Activity [27] | MIC [28] | other results
CC[C@@H](C(=O)[C@@H](C)[C@@H](O)[C@H](C)[C@@H]1O[C@@H]([C@@H](CC)C(=O)ONC(=O)c2ccccc2O)CC[C@@H]1C)[C@H]1O[C@]2(C=CC(=O)[C@]3(CC[C@@](C)([C@H]4CC[C@](O)(CC)[C@H](C)O4)O3)O2)[C@H](C)C[C@@H]1C | 2.26 µM (≈ 2 µg/mL) | 17 mm | 4.52 µM (≈ 4 µg/mL) | 36.2 µM (≈ 32 µg/mL) | 72.4 µM (≈ 64 µg/mL) | inactive | 72.4 µM (≈ 64 µg/mL) | Active | inactive | 72.4 µM (≈ 64 µg/mL) | inactive | 2.26 µM (≈ 2 µg/mL) | 4.52 µM (≈ 4 µg/mL) | 4.52 µM (≈ 4 µg/mL) | Active | 2.26 µM (≈ 2 µg/mL) | 4.52 µM (≈ 4 µg/mL) | 19 mm | inactive | 72.4 µM (≈ 64 µg/mL) | Activity [1]: Active; Activity [8]: Active; Activity [10]: Active; Activity [12]: Active; Activity [14]: Active; Activity [17]: Active; Activity [22]: Active; Activity [25]: Active; MIC [29]: 4.52 µM (≈ 4 µg/mL); MIC [30]: 4.52 µM (≈ 4 µg/mL)
CC[C@@H](C(=O)[C@@H](C)[C@@H](O)[C@H](C)[C@@H]1O[C@@H]([C@@H](CC)C(=O)ONC(=O)c2ccccc2)CC[C@@H]1C)[C@H]1O[C@]2(C=C[C@@H](O)[C@]3(CC[C@@](C)([C@H]4CC[C@](O)(CC)[C@H](C)O4)O3)O2)[C@H](C)C[C@@H]1C | 4.6 µM (≈ 4 µg/mL) | 25 mm | 4.6 µM (≈ 4 µg/mL) | 18.4 µM (≈ 16 µg/mL) | 18.4 µM (≈ 16 µg/mL) | inactive | 18.4 µM (≈ 16 µg/mL) | Active | inactive | 9.19 µM (≈ 8 µg/mL) | inactive | 2.3 µM (≈ 2 µg/mL) | 4.6 µM (≈ 4 µg/mL) | 4.6 µM (≈ 4 µg/mL) | Active | 4.6 µM (≈ 4 µg/mL) | 4.6 µM (≈ 4 µg/mL) | 32 mm | inactive | 18.4 µM (≈ 16 µg/mL) | MIC [1]: 1 to 16 µg/mL (≈ 1.15 to 18.4 µM); MIC [8]: 1 to 16 µg/mL (≈ 1.15 to 18.4 µM); MIC [10]: 1 to 16 µg/mL (≈ 1.15 to 18.4 µM); MIC [12]: 1 to 16 µg/mL (≈ 1.15 to 18.4 µM); MIC [14]: 1 to 16 µg/mL (≈ 1.15 to 18.4 µM); MIC [17]: 1 to 16 µg/mL (≈ 1.15 to 18.4 µM); MIC [22]: 1 to 16 µg/mL (≈ 1.15 to 18.4 µM); MIC [25]: 1 to 16 µg/mL (≈ 1.15 to 18.4 µM); MIC [29]: 4.6 µM (≈ 4 µg/mL); MIC [30]: 2.3 µM (≈ 2 µg/mL)
CC[C@@H](C(=O)[C@@H](C)[C@@H](O)[C@H](C)[C@@H]1O[C@@H]([C@@H](CC)C(=O)ONC(=O)c2ccccc2O)CC[C@@H]1C)[C@H]1O[C@]2(C=C[C@@H](O)[C@]3(CC[C@@](C)([C@H]4CC[C@](O)(CC)[C@H](C)O4)O3)O2)[C@H](C)C[C@@H]1C | 2.26 µM (≈ 2 µg/mL) | 24 mm | 2.26 µM (≈ 2 µg/mL) | 2.26 µM (≈ 2 µg/mL) | 4.51 µM (≈ 4 µg/mL) | inactive | 4.51 µM (≈ 4 µg/mL) | Active | inactive | 4.51 µM (≈ 4 µg/mL) | inactive | 1.13 µM (≈ 1 µg/mL) | 2.26 µM (≈ 2 µg/mL) | 2.26 µM (≈ 2 µg/mL) | Active | 2.26 µM (≈ 2 µg/mL) | 2.26 µM (≈ 2 µg/mL) | 30 mm | inactive | 4.51 µM (≈ 4 µg/mL) | MIC [1]: 1 to 16 µg/mL (≈ 1.13 to 18.1 µM); MIC [8]: 1 to 16 µg/mL (≈ 1.13 to 18.1 µM); MIC [10]: 1 to 16 µg/mL (≈ 1.13 to 18.1 µM); MIC [12]: 1 to 16 µg/mL (≈ 1.13 to 18.1 µM); MIC [14]: 1 to 16 µg/mL (≈ 1.13 to 18.1 µM); MIC [17]: 1 to 16 µg/mL (≈ 1.13 to 18.1 µM); MIC [22]: 1 to 16 µg/mL (≈ 1.13 to 18.1 µM); MIC [25]: 1 to 16 µg/mL (≈ 1.13 to 18.1 µM); MIC [29]: 2.26 µM (≈ 2 µg/mL); MIC [30]: 2.26 µM (≈ 2 µg/mL)
CC[C@@H](C(=O)[C@@H](C)[C@@H](O)[C@H](C)[C@@H]1O[C@@H]([C@@H](CC)C(=O)ONC(=O)c2ccccc2)CC[C@@H]1C)[C@H]1O[C@]2(C=CC(=O)[C@]3(CC[C@@](C)([C@H]4CC[C@](O)(CC)[C@H](C)O4)O3)O2)[C@H](C)C[C@@H]1C | 9.22 µM (≈ 8 µg/mL) | 20 mm | 18.4 µM (≈ 16 µg/mL) | 36.9 µM (≈ 32 µg/mL) | 73.7 µM (≈ 64 µg/mL) | inactive | 73.7 µM (≈ 64 µg/mL) | Active | inactive | 73.7 µM (≈ 64 µg/mL) | inactive | 2.3 µM (≈ 2 µg/mL) | 4.61 µM (≈ 4 µg/mL) | 18.4 µM (≈ 16 µg/mL) | Active | 4.61 µM (≈ 4 µg/mL) | 18.4 µM (≈ 16 µg/mL) | 23 mm | inactive | 36.9 µM (≈ 32 µg/mL) | Activity [1]: Active; Activity [8]: Active; Activity [10]: Active; Activity [12]: Active; Activity [14]: Active; Activity [17]: Active; Activity [22]: Active; Activity [25]: Active; MIC [29]: 18.4 µM (≈ 16 µg/mL); MIC [30]: 4.61 µM (≈ 4 µg/mL)
